Results reported in patent US20070117743A1, “New antitumoral compounds” (priority 2003, published 2007).

How the values were obtained:
Format in all cases: cell-based, human
A-549 = experiment: SRB colorimetric assay of cell growth and viability, A-549; conditions: A-549, 48 hours exposure
SK-MEL-28 = experiment: SRB colorimetric assay of cell growth and viability, SK-MEL-28; conditions: 48 hours exposure, SRB
HT-29 = experiment: SRB colorimetric assay of cell growth and viability, HT-29; conditions: HT-29, 48 hours exposure
LoVo = experiment: SRB colorimetric assay of cell growth and viability, LoVo; conditions: LOVO, 48 hours exposure
LoVo-Dox = experiment: SRB colorimetric assay of cell growth and viability, LoVo-Dox; conditions: LOVO-DOX, 48 hours exposure
Procedure, shortened: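 SRB staining (0.4% wt/vol in 1% acetic acid, 10 min, room temperature) of cells fixed with 50% TCA follows a 48-hour exposure to compound. Plating density is 5×10^3 cells/well, and the OD is taken at 490 nm.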

DU-145 = experiment: SRB colorimetric assay of cell growth and viability, DU-145; conditions: 48 hours exposure, SRB
LNCaP = experiment: SRB colorimetric assay of cell growth and viability, LNCaP; conditions: 48 hours exposure, SRB
From the text: The finality of this assay is to interrupt the growth of a “in vitro” tumor cell culture by means a continued exhibition of the cells to the sample to be testing.
This form of the assay employs 96 well cell culture microplates of 9 mm diameter (Faircloth, 1988; Mosmann, 1983). Most of the cell lines are obtained from American Type Culture Collection (ATCC) derived from different human cancer types.
Cells are maintained in RPMI 1640 10% FBS, supplemented with 0.1 g/l penicillin and 0.1 g/l streptomycin sulfate and then incubated at 37° C., 5% CO2 and 98% humidity. For the experiments, cells were harvested from subconfluent cultures using trypsin and resuspended in fresh medium before plating.
Cells are seeded in 96 well microtiter plates, at 5×10^3 cells per well in aliquots of 195 μL medium, and they are allowed to attach to the plate surface by growing in drug free medium for 18 hours. Afterward, samples are added in aliquots of 5 μL in a ranging from 10 to 10^−8 μg/mL, dissolved in DMSO:EtOH:PBS (0.5:0.5:99). After 48 hours exposure, the antitumor effect are measured by the SRB methodology: cells are fixed by adding 50 μL of cold 50% (wt/vol) trichloroacetic acid (TCA) and incubating for 60 minutes at 4° C. Plates are washed with deionized water and dried. One hundred μL of SRB solution (0.4% wt/vol in 1% acetic acid) is added to each microtiter well and incubated for 10 minutes at room temperature. Unbound SRB is removed by washing with 1% acetic acid. Plates are air dried and bound stain is solubilized with Tris buffer. Optical densities are read on a automated spectrophotometric plate reader at a single wavelength of 490 nm.
The values for mean+/− SD of data from triplicate wells are calculated. Some parameters for cellular responses can be calculated: GI=growth inhibition, TGI=total growth inhibition (cytostatic effect) and LC=cell killing (cytotoxic effect).

IGROV-1 = experiment: SRB colorimetric assay of cell growth and viability, IGROV-1; conditions: 48 hours exposure, SRB
IGROV-ET = experiment: SRB colorimetric assay of cell growth and viability, IGROV-ET; conditions: 48 hours exposure, SRB
HeLa = experiment: SRB colorimetric assay of cell growth and viability, HeLa; conditions: HELA, 48 hours exposure
HeLa-APL = experiment: SRB colorimetric assay of cell growth and viability, HeLa-APL; conditions: HELA-APL, 48 hours exposure
K-562 = experiment: SRB colorimetric assay of cell growth and viability, K-562; conditions: K-562, 48 hours exposure
PANC-1 = experiment: SRB colorimetric assay of cell growth and viability, PANC-1; conditions: PANC-1, 48 hours exposure

With `C/C=C1\NC(=O)[C@H](Cc2ccccc2)NC(=O)[C@@H](C(C)C)NC(=O)[C@@H]([C@@H](C)CC)NC(=O)[C@H](NC(=O)[C@H](NC(=O)[C@H](CCCN)NC(=O)[C@@H]2CCCN2C(=O)[C@H](NC(=O)[C@@H](NC(=O)[C@@H](NC(=O)[C@H](NC(=O)CC[C@@H](C)CC)C(C)C)[C@@H](C)O)C(C)C)C(C)C)[C@@H](C)CC)[C@@H](C)OC(=O)[C@H](C(C)C)NC1=O` [Compound 59, [Pro^9, (4S)-MeHex^14]-KF] as the compound, how does the “TGI A-549” value (A-549) read?
The value was 6.76E−06 Molar.

What about the GI50 (A-549; read-out: GI50 A-549) of the same compound?
The GI50 was ≥ 6.76 µM.

What about the CC50 (A-549; read-out: LC50 A-549) of the same compound?
Its CC50 is ≥ 6.76 µM.

And the GI50 (SK-MEL-28)?
The GI50 was ≥ 6.76 µM.

What about the “TGI MEL-28” value (SK-MEL-28) of the same compound?
The value was 6.76E−06 Molar.

What about the CC50 (SK-MEL-28; read-out: LC50 MEL-28) of the same compound?
The CC50 was ≥ 6.76 µM.

What about the “TGI HT-29” value (HT-29) of the same compound?
The value was 6.76E−06 Molar.

And the GI50 (HT-29; read-out: GI50 HT-29)?
The GI50 was ≥ 6.76 µM.

What about the CC50 (HT-29; read-out: LC50 HT-29) of the same compound?
The CC50 was ≥ 6.76 µM.

And the GI50 (LoVo)?
Its GI50 is 5.28 µM.

And the “TGI LOVO” value (LoVo)?
The value was 6.76E−06 Molar.

What about the CC50 (LoVo; read-out: LC50 LOVO) of the same compound?
Its CC50 is ≥ 6.76 µM.

And the GI50 (LoVo-Dox)?
Its GI50 is ≥ 6.76 µM.

And the “TGI LOVO-DOX” value (LoVo-Dox)?
Its value is 6.76E−06 Molar.

And the CC50 (LoVo-Dox; read-out: LC50 LOVO-DOX)?
The CC50 was ≥ 6.76 µM.

And the GI50 (DU-145)?
The GI50 was ≥ 6.76 µM.

And the LC50 (concentration causing 50% net cell kill) (DU-145)?
Its LC50 (concentration causing 50% net cell kill) is ≥ 6.76 µM.

And the “TGI DU-145” value (DU-145)?
The value was 6.76E−06 Molar.

What about the “TGI LN-caP” value (LNCaP) of the same compound?
The value was 6.76E−06 Molar.

And the GI50 (LNCaP; read-out: GI50 LN-caP)?
Its GI50 is 4.52 µM.

And the CC50 (LNCaP; read-out: LC50 LN-caP)?
The CC50 was ≥ 6.76 µM.

What about the GI50 (IGROV-1) of the same compound?
The GI50 was ≥ 6.76 µM.

And the LC50 (concentration causing 50% net cell killing) (IGROV-1)?
Its LC50 (concentration causing 50% net cell killing) is ≥ 6.76 µM.

What about the “TGI IGROV” value (IGROV-1) of the same compound?
Its value is 6.76E−06 Molar.

What about the GI50 (IGROV-ET) of the same compound?
Its GI50 is ≥ 6.76 µM.

And the “TGI IGROV-ET” value (IGROV-ET)?
Its value is 6.76E−06 Molar.

And the CC50 (IGROV-ET; read-out: LC50 IGROV-ET)?
Its CC50 is ≥ 6.76 µM.

And the GI50 (HeLa)?
Its GI50 is ≥ 6.76 µM.

What about the “TGI HELA” value (HeLa) of the same compound?
Its value is 6.76E−06 Molar.

What about the CC50 (HeLa; read-out: LC50 HELA) of the same compound?
The CC50 was ≥ 6.76 µM.

What about the GI50 (HeLa-APL) of the same compound?
Its GI50 is ≥ 6.76 µM.

What about the “TGI HELA-APL” value (HeLa-APL) of the same compound?
Its value is 6.76E−06 Molar.

What about the CC50 (HeLa-APL; read-out: LC50 HELA-APL) of the same compound?
The CC50 was ≥ 6.76 µM.

What about the GI50 (K-562) of the same compound?
The GI50 was ≥ 6.76 µM.

What about the “TGI K-562” value (K-562) of the same compound?
The value was 6.76E−06 Molar.

What about the CC50 (K-562; read-out: LC50 K-562) of the same compound?
Its CC50 is ≥ 6.76 µM.

What about the GI50 (PANC-1) of the same compound?
Its GI50 is ≥ 6.76 µM.

What about the “TGI PANC-1” value (PANC-1) of the same compound?
The value was 6.76E−06 Molar.

What about the CC50 (PANC-1; read-out: LC50 PANC-1) of the same compound?
The CC50 was ≥ 6.76 µM.
